Results published in patent US12502435B2, “Metastatic brain tumor targeting peptides” (H. Lee Moffitt Cancer Center and Research Institute, Inc., priority 2018, dated 2025).

Assays:
[1] = system: Lung Cancer Brain Metastases Cells (MH1002, MH1016, H1915); experiment: flow cytometry binding of peptide to lung cancer brain metastases cells; conditions: compared to primary lung cancer cells and non-targeting peptides
Source text: FIGS. 2A to 2C show binding of BRDT (LBM1) peptide applied to Primary Lung Cancer Cells, Non Malignant Brain Cells, Lung Cancer Brain Metastases Cells (MH1002, MH1016, H1915) analyzed through flow cytometry.
FIGS. 4A to 4C show binding of LBM2 peptide applied to Primary Lung Cancer Cells, Non Malignant Brain Cells, Lung Cancer Brain Metastases Cells (MH1002, MH1016, H1915) analyzed through flow cytometry.
FIGS. 6A to 6C show binding AMOT (LBM4) peptide applied to Primary Lung Cancer Cells, Non Malignant Brain Cells, Lung Cancer Brain Metastases Cells (MH1002, MH1016, H1915) analyzed through flow cytometry.
For each peptide, as the concentration of peptide goes up, there was a right shift indicating binding to the brain met cells, with minimal binding to the lung cancer primary cells, showing specificity of binding to the brain mets over the lung cancer.

[2] = system: Lung Cancer Brain Metastases cells; experiment: peptide binding to lung cancer brain metastases cells (FIGS. 3, 5, 7B); conditions: MH1002
[3] = system: Primary Lung Cancer Cells; experiment: peptide binding to primary lung cancer cells (FIGS. 3, 5, 7A)
[4] = system: non-malignant brain cells; experiment: peptide binding to non-malignant brain cells (FIGS. 3, 5, 7A)

Sequence | flow cytometry shift with peptide applied to lung cancer BM cells [1] | binding to Lung Cancer Brain Metastases cells [2] | binding to primary lung cancer cells [3] | binding to non-malignant brain cells [4]
SYPSNALSLHKY [LBM1] | right shift | positive binding | no binding | no binding
TLGLRPVPVATT [LBM2] | right shift | positive binding | no binding | no binding
